Experimental data published in patent US7786141B2 (Vertex Pharmaceuticals Incorporated, priority 2004, dated 2010).
Read-outs that look alike come from different tables or passages of the source.

Columns and labels:
[1] = biological target: T1, M1 muscarinic receptor (Homo sapiens, UniProt P11229); experiment: Functional mobilization of intracellular calcium (FLIPR) in M1-CHO cells; assay type: cell-based
T1 construct: expressed in transfected cells; host or cells: CHO (M1-CHO)
T1 sequence (P11229 1-460): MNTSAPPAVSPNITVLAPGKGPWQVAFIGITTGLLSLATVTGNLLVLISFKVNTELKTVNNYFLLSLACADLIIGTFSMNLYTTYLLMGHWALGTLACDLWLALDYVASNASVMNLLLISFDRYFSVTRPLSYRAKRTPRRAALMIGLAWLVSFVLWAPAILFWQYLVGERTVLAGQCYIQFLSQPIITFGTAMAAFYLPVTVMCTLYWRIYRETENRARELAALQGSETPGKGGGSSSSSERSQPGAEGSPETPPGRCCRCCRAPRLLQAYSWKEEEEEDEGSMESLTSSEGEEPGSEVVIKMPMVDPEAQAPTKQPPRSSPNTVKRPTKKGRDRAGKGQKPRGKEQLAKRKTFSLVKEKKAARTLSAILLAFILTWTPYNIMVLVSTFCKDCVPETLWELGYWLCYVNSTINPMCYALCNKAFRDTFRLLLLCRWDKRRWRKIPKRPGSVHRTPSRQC
How it was run: (§1)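 Intracellular calcium rise is measured by FLIPR fluorescence over 60 sec in CHO cells carrying human M1 or M4 receptors. Compounds are tested alone as agonists, or pre-incubated 15 min (or co-applied) ahead of carbachol at its EC80 to detect inhibition.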

[2] = biological target: T2, M4 muscarinic receptor (Homo sapiens, UniProt P08173); experiment: Functional mobilization of intracellular calcium (FLIPR) in M4-CHO cells; assay type: cell-based
T2 construct: expressed in transfected cells; host or cells: CHO (M4-CHO)
T2 sequence (P08173 1-479): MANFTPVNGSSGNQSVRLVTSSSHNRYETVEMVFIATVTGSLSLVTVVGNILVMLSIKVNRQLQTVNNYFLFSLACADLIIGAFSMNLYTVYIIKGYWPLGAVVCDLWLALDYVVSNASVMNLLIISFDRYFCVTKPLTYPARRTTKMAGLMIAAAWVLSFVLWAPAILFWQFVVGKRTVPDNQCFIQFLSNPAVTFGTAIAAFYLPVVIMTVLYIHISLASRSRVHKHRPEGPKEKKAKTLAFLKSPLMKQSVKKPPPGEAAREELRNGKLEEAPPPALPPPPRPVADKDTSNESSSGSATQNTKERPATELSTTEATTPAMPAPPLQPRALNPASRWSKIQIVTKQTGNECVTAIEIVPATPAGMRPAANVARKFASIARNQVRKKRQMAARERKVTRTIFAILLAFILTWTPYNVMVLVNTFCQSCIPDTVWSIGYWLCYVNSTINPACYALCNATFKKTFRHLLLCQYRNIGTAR
How it was run: as §1

[3] = Table 4, 100% efficacy is the maximum response obtained with the Carbachol control
[4] = Table 4, modulating M1 receptor
[5] = Table 4, modulating M4 receptor
[6] = M1 receptor, calcium mobilization
[7] = M1 receptor, calcium mobilization, read-out: M1 Efficacy
[8] = M4 receptor, calcium mobilization
[9] = M4 receptor, calcium mobilization, read-out: M4 Efficacy
[10] = Table 4, M1 receptor, calcium mobilization (FLIPR)
[11] = Table 4, M4 receptor, calcium mobilization (FLIPR)
[12] = 100% efficacy is the maximum response obtained with the Carbachol control, Table 5

Structure (SMILES) | Emax [1, 3] [%] | M1 Activity [1, 4] | Emax [2, 3] [%] | M4 Activity [2, 5] | further results
Fc1ccc2c(c1)C1(CCN(C3CC4CCC(C4)C3)CC1)CN2 (centres unmarked) [compound 377] | – | – | – | – | EC50 ([1]; M1-CHO cells, calcium mobilization (FLIPR)): < 100 nM; Emax ([1]; M1-CHO cells, calcium mobilization (FLIPR), read-out: M1 Efficacy): 65 to 85%; EC50 ([2]; M4-CHO cells, calcium mobilization (FLIPR)): 100 to 1000 nM; Emax ([2]; M4-CHO cells, calcium mobilization (FLIPR), read-out: M4 Efficacy): 65 to 85%
COc1ccc([C@@H](C)N[C@H]2CC3(CCN(CC4CC5C=CC4C5)CC3)c3cc(Cl)ccc32)cc1 (some centres unmarked) [compound 569] | 25 to 100 | xx (activity was measured to be between 2.0 μM and 5.0 μM) | 25 to 100 | xx (activity was measured to be between 2.0 μM and 5.0 μM) | –
CCOC(=O)N1CCC(N2CCC3(CC2)CN(C(=O)c2ccc(OC)cc2)c2ccc(F)cc23)CC1 [compound 41] | – | – | – | – | M1 Activity [1, 6]: xxx (activity was measured to be less than 0.1 μM); Emax [1, 7]: > 85%; M4 Activity [2, 8]: xxx (activity was measured to be less than 0.1 μM); Emax [2, 9]: > 85%
CCCC#CCOC(=O)N1CCC(N2CCC3(CC2)CN(C(C)=O)c2ccccc23)CC1 [compound 620] | 25 to 100 | x (activity was measured to be greater than 5.0 μM) | < 25 | x (activity was measured to be greater than 5.0 μM) | –
CCOC(=O)N1CCC(N2CCC3(CC2)CN(C(C)=O)c2ccc(-c4ccncc4)cc23)CC1 [compound 105] | – | – | – | – | M1 Activity [1, 6]: xx (activity was measured to be between 0.1 μM and 1.0 μM); Emax [1, 7]: < 65%; M4 Activity [2, 8]: x (activity was measured to be greater than 1.0 μM); Emax [2, 9]: < 65%
CCOC(=O)N1CCC(N2CCC3(CC2)CN(C(=O)C2(O)CC2)c2ccc(F)cc23)CC1 [compound 543] | > 100 | xxx (activity was measured to be less than 2.0 μM) | 25 to 100 | xxx (activity was measured to be less than 2.0 μM) | –
CN(C)C(=O)N1CC2(CCN(C[C@@H]3CCN(C(=O)OCC4CC4)C3)CC2)c2cc(F)ccc21 [compound 584] | 25 to 100 | xxx (activity was measured to be less than 2.0 μM) | 25 to 100 | xxx (activity was measured to be less than 2.0 μM) | –
O=C1CC2(CCN(C3CCCCCC3)CC2)c2ccccc2N1 [compound 242] | – | – | – | – | M1 Activity [1, 6]: xxx (activity was measured to be less than 0.1 μM); Emax [1, 7]: 65 to 85%; M4 Activity [2, 8]: xx (activity was measured to be between 0.1 μM and 1.0 μM); Emax [2, 9]: > 85%
CCOC(=O)N1C2CCC1CC(N1CCC3(CC1)CN(C(C)=O)c1ccc(C(F)(F)F)cc13)C2 (centres unmarked) [compound 583] | 25 to 100 | xxx (activity was measured to be less than 2.0 μM) | 25 to 100 | xxx (activity was measured to be less than 2.0 μM) | –
CC(=O)NC1CCC2(CCN(CCC3CCN(S(C)(=O)=O)CC3)CC2)c2ccccc21 (centres unmarked) [compound 969] | 25 to 100 | – | < 25 | – | M1 Activity [1, 10]: xxx (activity was measured to be less than 2.0 μM); M4 Activity [2, 11]: x (activity was measured to be greater than 5.0 μM)
CN(C)C(=O)N1CC2(CCN(C[C@H]3CCN(c4nccs4)C3)CC2)c2cc(F)ccc21 [compound 1037] | – | – | – | – | Emax [1, 12]: 25 to 100%; EC50 ([1]; CHO cells expressing M1, calcium mobilization, Table 5): 2000 to 10000 nM; Emax [2, 12]: 25 to 100%; EC50 ([2]; CHO cells expressing M4, calcium mobilization, Table 5): < 2000 nM
CCOC(=O)N1CCC(CN2CCC3(CC2)C(=O)N(C)c2ccccc23)CC1 [compound 327] | – | – | – | – | M1 Activity [1, 6]: x (activity was measured to be greater than 1.0 μM); Emax [1, 7]: < 65%; M4 Activity [2, 8]: x (activity was measured to be greater than 1.0 μM); Emax [2, 9]: < 65%
CC(=O)N[C@H]1CC2(CCN(C3CCCC3C)CC2)c2ccccc21 (some centres unmarked) [compound 830] | 25 to 100 | – | 25 to 100 | – | M1 Activity [1, 10]: x (activity was measured to be greater than 5.0 μM); M4 Activity [2, 11]: xx (activity was measured to be between 2.0 μM and 5.0 μM)
CCOC(=O)N1C2CCC1CC(N1CCC3(CC1)CN(C(C)=O)c1ccc(OC(F)(F)F)cc13)C2 (centres unmarked) [compound 466] | 25 to 100 | xxx (activity was measured to be less than 2.0 μM) | 25 to 100 | xxx (activity was measured to be less than 2.0 μM) | –
